The source of these data is patent publication US7179645B2 (priority 2002, dated 2007).

Where a SMILES comes first, the peptide text is derived from it. [ ]: non-standard residue; d: D form. The star is where a group is joined. Cbz = O=C(OCc1ccccc1)*; ava = not defined here

Series [1] relates to primary mouse macrophages and macrophage-like cell lines. To be noted: cited from earlier work.
The test system of series [2] is early stage breast cancer patients. To be noted: in vivo; cited from earlier work.
In series [3] the test system is C3H/HeJ mice (H-2^k); antibodies against the PGCC(95–104) epitope peptide. To be noted: mouse, in vivo.
Series [4] deals with C3H/HeJ(H-2^k) mice; splenic T cells. Type of series: in vivo, mouse. To be noted: for IFN-γ/Th-1 responses to the HIV gp160(843–855) epitope (ELISPOT): C3H/HeJ mice, 40 nmole, boosts day 13 and 31, spleens day 35. Here is the method:
An ELISPOT assay for IFN-γ cytokine responses was performed in order to titer more exactly splenic T lymphocyte subset responses to immunization with Ii-Key-ava-gp160(843–855) or gp160(843–855). The assay was performed as follows. A solution of the cytokine-specific capture antibody (100 μl at 6 μg/ml in phosphate-buffered saline solution, pH 7.2) was added to each well of a 96-well Immunospot plate (M200) for an overnight incubation at 4° C. After aspiration, phosphate-buffer saline solution 200 μl containing 10% fetal bovine serum and 1% penicillin-streptomycin-glutamine (mouse medium) was added to each well for 2 hr at RT. After washing four times with 1% Tween-20 in phosphate-buffered saline solution (wash buffer I), 100 μl of single cell suspensions from the spleens of immunized mice at 10^6 cells/well were re-stimulated with 100 μl of peptide-epitope at 5 μg/well in mouse medium and incubated for 20–40 hr at 37° C., 5% CO2. After washing twice with phosphate-buffered saline solution (wash buffer II) and four times with wash buffer 1,100 μl of 2 μg/ml biotinylated anti-mouse IFN-γ in 1× phosphate buffer saline with 10% fetal bovine serum (dilution buffer) was added to each well for 2 hr at RT. After washing five times with wash buffer 1,100 μl of streptavidin-horse radish peroxidase conjugate (1:500) in dilution buffer was added to each well for 1 hr at RT. After washing four times with wash buffer I and two times with wash buffer II, 100 μl of the 3-amino-9-ethylcarbazole/H2O2 substrate (Pharmingen 551951) was added and incubated for 30–60 min in the dark at RT. The reaction was stopped by washing three times with 200 μl of deionized water. ELISPOT data analysis was performed by using the Immunospot 1.7e software (Cellular Limited Technology). Digitized images of quadruplicate wells were analyzed for the presence of spots in which color density exceeds background based on comparison of control cells (naive splenocytes) and experimental cells (splenocytes of immunized mice) cells. Additional counting parameters for spot size and circularity were applied to gate out speckles caused by non-specific antibody binding. Each spot represents a single cell secreting IFN-γ.
C3H/HeJ(H-2^k) mice were immunized with 40 nmole of peptides (50 μl) emulsified with equal volume of incomplete Freund's adjuvant (IFA), subcutaneously at the base of the tail. On day 13 the mice were boosted subcutaneously at the base of the tail with 40 nmole of peptides (50 μl) emulsified with equal amount of incomplete Freund's adjuvant (IFA). On day 31, the mice were boosted intravenously with 40 nmole peptides dissolved in 100 μl Hank's balanced salts solution (HBSS). […]

The subject of series [5] is B10.A (5R) mice; antibodies against the HIV gp160(843–855) peptide. Format: in vivo, mouse. To be noted: peptides in saline solution; for Antibody induction (ELISA), Dilution^−1 20: serum day 35, against HIV gp160(843–855) peptide, serum dilution^−1 20; for Antibody induction (ELISA), Dilution^−1 60: serum day 35, serum dilution^−1 60; for Antibody induction (ELISA), Dilution^−1 180: serum day 35, serum dilution^−1 180; for Antibody induction (ELISA), Dilution^−1 540: serum day 35, serum dilution^−1 540. How it is done: An ELISA assay for antibody responses following immunization with the experimental peptides indicated above was performed as follows. Fifty microliters (μl) of a solution of the coating peptide at 2 μg/well in 0.1 M carbonate buffer, pH 9.5 was added to each well of a 96-well Nunc-immunoplate (#442404) for an overnight incubation at 4° C. After aspiration, 250 μl of phosphate-buffer saline solution containing 3% fetal bovine serum (assay diluent) was added to each well for 2 hr at RT. After washing three times with assay diluent, 50 μl of 20-times diluted mouse serum in 1:3 serial dilution in assay diluent was added to each well for 2 hr at RT. After washing three times with assay diluent, 50 μl of 1 μg/ml biotinylated goat anti-mouse IgG1 or IgG2a was added to each well and incubated for 1 hr at RT. After washing three times with assay diluent, 50 μl of streptavidin-horse radish peroxidase conjugate (1:1000) was added to each well and incubated for 30 min at RT. After washing three times with assay diluent, 100 μl of tetramethylbenzidine/H2O2 solution (Pharmingen 264 KK) was added to each well for 15 min in the dark at room temperature. The reaction was stopped with 100 μl 1N H2SO4 in each well and the absorbance was read immediately at 450 nm.
B10.A (5R) mice (H-2) were immunized with 20 nmole of peptides in 50 μl phosphate-buffered saline solution, intramuscularly in right and left rear legs on days 1 and 2, respectively. On day 14 the mice were boosted intramuscularly with 40 nmole of peptides in 200 μl Hank's balanced salts solution intramuscularly in a rear leg. On day 30 the mice were boosted intravenously with 40 nmole peptides dissolved in Hank's balanced salts solution (HBSS). On day 35 the mice were sacrificed and serum samples were assayed for antibody titers against the HIV gp160(843–855) peptide.
On the technique in general: ELISA stands for enzyme-linked immunosorbent assay.

Series [6] relates to tumor cells expressing HLA-A24 and CEA. To be noted: cited from earlier work.
Series [7] has as its system lymphocytes from HLA-B7+ normal blood donors. To be noted: cited from earlier work.
The subject of series [8] is mice in an ovalbumin-induced asthmatic response. To be noted: mouse, in vivo; cited from earlier work.
In series [9] the test system is HLA alleles of the A2 supertype (A2.2, A2.3, A2.6 and A6802). To be noted: cited from earlier work.
Series [10] deals with MBP-specific autoantibodies in the CSF. To be noted: human, in vivo; cited from earlier work.
Series [11] has as its system patients with resected melanoma. To be noted: human, in vivo; cited from earlier work.
Series [12] deals with B10(A) 5R mice; splenic CD3+/CD4+ T-helper cells. Format: in vivo, mouse. To be noted: splenic cells day 26, double color FACS. The source says: To test the mechanism for the much greater immunogenecity of Ii-Key/epitope hybrids epitope peptides, B10(A) 5R mice were immunized with 10 nmole of either gp160(843–855) peptide or Ii-Key/gp160(843–855) in CFA subcutaneously at the right side of the base of the tail. On day 10 the mice were boosted with 40 nmole of hybrid peptide or epitope peptide in saline by intravenous injection. On day 26 mice were sacrificed and splenic cells were obtained. 1×10^6 splenic mononuclear cells were stimulated overnight in the presence of 10 units of recombinant IL-2 and indicated peptides (10 μg/ml). During the last 3 hours of incubation, 2 μM monensin (Golgi-stop, Pharmingen) was added to the cultures, and cells were then stained for both cellular surface markers and intracellular IFN-γ. The FACS assay to quantify antigen specific Th1 helper cell responses was performed as follows. The cells were incubated with 1 μg […] (FC/block, Pharmingen) per 10^6 cells in 100 μl of staining buffer (Dulbecco's phosphate-buffered saline solution without magnesium or calcium). Those cells were stained at 10^6 cells/100 μl with either rat-anti-mouse CD3 or CD4 monoclonal antibodies for 30 min at 4° C. After washing, the cells were re-suspended, fixed with 4% formaldehyde, and permeablized with 0.5% saponin for 20 min at 4° C. The cells were suspended in staining buffer with 0.5% saponin, and stained with the appropriate anti-cytokine or isotype control antibody (IFN-γ, XMG1.2, Pharmingen or IFN-γ isotype control, R3–34, Pharmingen). The cells were incubated for 30 min at 4° C. in the dark, washed and fixed for 10 min with 0.3% formaldehyde in 0.5% saponins in staining buffer for flow cytometric analysis. Flow cytometric analysis was performed as follows. First, CD3^+ cells were gated using dual color dot plot of side scatter versus CD3 FITC as the T-gate population. The CD3^+ cells were then analyzed for CD4 expression to target the CD3^+/CD4^+ T-helper cell population. […]

The mark [13] stands for this setting: IFN-γ ELISPOT, C3H/HeJ(H-2^k) mice, spleens day 35, re-stimulated with HIV gp160(843–855) peptide.

For `CC(C)C[C@@H](C=O)NC(=O)[C@H](CC(C)C)NC(=O)[C@H](CC(C)C)NC(=O)OCc1ccccc1` [MG132] (Cbz-Leu-Leu-Leu-aldehyde), the LeTx cytotoxicity entry in series [1] was “efficiently block”.

For `CC(=O)N[C@@H](CSC(=O)[C@]1([C@@H](O)C(C)C)NC(=O)[C@H](C)[C@@H]1O)C(=O)O` [lactacystin], the LeTx cytotoxicity entry in series [1] is recorded as “efficiently block”.

In the case of `CC/C(=C(\c1ccccc1)c1ccc(OCCN(C)C)cc1)c1ccccc1` [tamoxifen], in [2], the overall survival entry is on record as “benefited overall survival” and the survival entry is “did not improve survival”.

On to “Ac-IAYLKQATAK-NH2 [PGCC, reference compound]”, for which, in [3], the “Antibody induction (ELISA), Dilution^−1 1620” value is reported as −0.003 and the “Antibody induction (ELISA), Dilution^−1 4860” value is 0.003.

Turning to Ac-LRMK-AYRAIRHIPR-NH2 [gp160(843–855)], in series [4], the “IFN-γ/Th-1 responses to the HIV gp160(843–855) epitope (ELISPOT)” value is “IFN-γ/Th-1 responses were elicited”.

On to “Ac-LRMK-ava-YRAIRHIPR-NH2 [Ii-Key/one-ava/gp160(844–855)]”, for which the “IFN-γ/Th-1 responses to the HIV gp160(843–855) epitope (ELISPOT)” value in series [4] is given as “IFN-γ/Th-1 responses were elicited”.

With Gp160 (843–855) (LRMKAYRAIRHIPR), in [5], the “Antibody induction (ELISA), Dilution^−1 20” value was found to be 0.052; the “Antibody induction (ELISA), Dilution^−1 60” value is given as 0.023; the “Antibody induction (ELISA), Dilution^−1 180” value is on record as 0.000; the “Antibody induction (ELISA), Dilution^−1 540” value was −0.005.

Consider HLFYSWYK [9.5.6], for which the “elicitation of CTL lines lysing tumor cells expressing HLA-A24 and CEA” value in series [6] is on record as “elicited CTL lines that lysed tumor cells”.

Turning to IPQQHTQVL [CEA9(632)], the “primary CTL responses” value in [7] is reported as “induced primary CTL responses”.

Turning to ISQAVHAAHAEINAAGR [336E-A], the “airway eosinophilia and OVA-specific IL-4 and IL-5 production” value in series [8] is reported as “significant decrease”.

For the molecule “Ii-Key/one-ava/gp160 (843–855) (Ac-LRMK[ava]AYRAIRHIPR-NH2; reading uncertain)”, in [5], the “Antibody induction (ELISA), Dilution^−1 20” value was 0.600; the “Antibody induction (ELISA), Dilution^−1 60” value is recorded as 0.157; the “Antibody induction (ELISA), Dilution^−1 180” value was found to be 0.073; the “Antibody induction (ELISA), Dilution^−1 540” value came to 0.024.

Take “Ii-Key/two-ava/gp160 (843–855) (Ac-LRMK[ava][ava]AYRAIRHIPR-NH2; reading uncertain)”: in series [5], the “Antibody induction (ELISA), Dilution^−1 20” value is reported as 0.131; the “Antibody induction (ELISA), Dilution^−1 60” value came out at 0.039; the “Antibody induction (ELISA), Dilution^−1 180” value is reported as 0.027; the “Antibody induction (ELISA), Dilution^−1 540” value turned out to be 0.003.

As for LMTFWNPPV [9.5.2], in series [9], the “binding to other common HLA alleles of the A2 supertype” value is on record as “bound tightly”. Moreover, the “anti-tumor CTL responses” value in [6] is on record as “induced vigorous anti-tumor CTL responses”.

Consider “P85VVHFFKNIVTP96 (PVVHFFKNIVTP; listed as Homo sapiens)”, for which, in series [10], the “neurological or systemic side effects” value is “No neurological or systemic side effects were observed” and the “tolerance to MBP” value is “induced tolerance”.

On to QYSWFVNGTF [9.5.4], for which the “elicitation of CTL lines lysing tumor cells expressing HLA-A24 and CEA” value in [6] is “elicited CTL lines that lysed tumor cells”.

As for YMDGTMSQV [tyrosinase(368–376)(370D)], the “patients developing a positive skin test response” value in series [11] is “none”.

For gp160 (843–855) (LRMKAYRAIRHIPR), in series [4] (setting [13]), the “Number (mean number of spots and standard deviation in triplicate wells)” value is on record as 5 (+/−3.6); the “Size (mean spot size and standard deviation)” value is 0.019 (+/−0.01) mm^2. Further, in [12], the “Percentage of cells CD3^+/IFN-γ^+” value is recorded as 2.05%, the “Percentage of cells CD4^+” value turned out to be 31.03% and the “Percentage of cells CD4^+/IFN-γ^+” value was 0.94%.
